Legend:
Experiment in all cases: relative viability (nuclei count vs DMSO), 5 days (fraction); higher = more cells survive
[1] = system: LCLC-103H
Outline: (§1)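 Relative viability was taken as the ratio of nuclei in treated wells to nuclei in vehicle wells. Lung cancer cell lines in 1536-well plates received compounds by pin tool one day after seeding, either one drug alone or a fixed anchor-drug dose plus five library-drug doses (not always all listed) in √10 steps. Nuclei were counted on 4× images after 5 days of treatment, and values are medians of duplicate plates.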

[2] = system: LXF-289
Outline: as §1

[3] = system: NCI-H1355
Outline: as §1

[4] = system: NCI-H1563
Outline: as §1

[5] = system: NCI-H1651
Outline: as §1

[6] = system: NCI-H1755
Outline: as §1

[7] = system: NCI-H1792
Outline: as §1

[8] = system: NCI-H1915
Outline: as §1

[9] = system: NCI-H2347
Outline: as §1

[10] = system: NCI-H3122
Outline: as §1

[11] = system: NCI-H322M
Outline: as §1

[12] = system: NCI-H441
Outline: as §1

[13] = system: NCI-H460
Outline: as §1

[14] = system: NCI-H520
Outline: as §1

[15] = system: NCI-H596
Outline: as §1

[16] = system: NCI-H661
Outline: as §1

[17] = system: NCI-H727
Outline: as §1

[18] = system: PC-14
Outline: as §1

[19] = system: RERF-LC-KJ
Outline: as §1

[20] = system: SK-MES-1
Outline: as §1

SMILES: Cc1sc2c(c1C)C(c1ccc(Cl)cc1)=N[C@@H](CC(=O)OC(C)(C)C)c1nnc(C)n1-2 [JQ1] + CS(=O)(=O)N1CCN(Cc2cc3nc(-c4cccc5[nH]ncc45)nc(N4CCOCC4)c3s2)CC1 [Pictilisib] (partner 1 µM)
- relative viability ([1]; first compound 0.04 µM): 0.571
- relative viability ([1]; first compound 0.1265 µM): 0.522
- relative viability ([1]; first compound 0.4 µM): 0.537
- relative viability ([1]; first compound 1.265 µM): 0.4
- relative viability ([1]; first compound 4 µM): 0.352
- relative viability ([2]; first compound 0.04 µM): 0.792
- relative viability ([2]; first compound 0.1265 µM): 0.783
- relative viability ([2]; first compound 0.4 µM): 0.629
- relative viability ([2]; first compound 1.265 µM): 0.462
- relative viability ([2]; first compound 4 µM): 0.409
- relative viability ([3]; first compound 0.04 µM): 0.429
- relative viability ([3]; first compound 0.1265 µM): 0.426
- relative viability ([3]; first compound 0.4 µM): 0.456
- relative viability ([3]; first compound 1.265 µM): 0.334
- relative viability ([3]; first compound 4 µM): 0.281
- relative viability ([4]; first compound 0.04 µM): 0.606
- relative viability ([4]; first compound 0.1265 µM): 0.645
- relative viability ([4]; first compound 0.4 µM): 0.611
- relative viability ([4]; first compound 1.265 µM): 0.622
- relative viability ([4]; first compound 4 µM): 0.638
- relative viability ([5]; first compound 0.04 µM): 0.476
- relative viability ([5]; first compound 0.1265 µM): 0.451
- relative viability ([5]; first compound 0.4 µM): 0.335
- relative viability ([5]; first compound 1.265 µM): 0.271
- relative viability ([5]; first compound 4 µM): 0.245
- relative viability ([6]; first compound 0.04 µM): 0.404
- relative viability ([6]; first compound 0.1265 µM): 0.419
- relative viability ([6]; first compound 0.4 µM): 0.421
- relative viability ([6]; first compound 1.265 µM): 0.208
- relative viability ([6]; first compound 4 µM): 0.185
- relative viability ([7]; first compound 0.04 µM): 0.273
- relative viability ([7]; first compound 0.4 µM): 0.31
- relative viability ([7]; first compound 1.265 µM): 0.188
- relative viability ([7]; first compound 4 µM): 0.174
- relative viability ([8]; first compound 0.04 µM): 0.89
- relative viability ([8]; first compound 0.1265 µM): 0.872
- relative viability ([8]; first compound 0.4 µM): 0.758
- relative viability ([8]; first compound 1.265 µM): 0.494
- relative viability ([8]; first compound 4 µM): 0.226
- relative viability ([9]; first compound 0.04 µM): 0.791
- relative viability ([9]; first compound 0.1265 µM): 0.529
- relative viability ([9]; first compound 0.4 µM): 0.542
- relative viability ([9]; first compound 1.265 µM): 0.334
- relative viability ([9]; first compound 4 µM): 0.372
- relative viability ([10]; first compound 0.04 µM): 0.576
- relative viability ([10]; first compound 0.1265 µM): 0.624
- relative viability ([10]; first compound 0.4 µM): 0.675
- relative viability ([10]; first compound 1.265 µM): 0.425
- relative viability ([10]; first compound 4 µM): 0.445
- relative viability ([11]; first compound 0.04 µM): 0.478
- relative viability ([11]; first compound 0.1265 µM): 0.559
- relative viability ([11]; first compound 0.4 µM): 0.439
- relative viability ([11]; first compound 1.265 µM): 0.398
- relative viability ([11]; first compound 4 µM): 0.358
- relative viability ([12]; first compound 0.04 µM): 0.475
- relative viability ([12]; first compound 0.1265 µM): 0.561
- relative viability ([12]; first compound 0.4 µM): 0.38
- relative viability ([12]; first compound 1.265 µM): 0.234
- relative viability ([12]; first compound 4 µM): 0.195
- relative viability ([13]; first compound 0.04 µM): 0.398
- relative viability ([13]; first compound 0.4 µM): 0.276
- relative viability ([13]; first compound 1.265 µM): 0.204
- relative viability ([13]; first compound 4 µM): 0.135
- relative viability ([14]; first compound 0.04 µM): 0.282
- relative viability ([14]; first compound 0.1265 µM): 0.283
- relative viability ([14]; first compound 0.4 µM): 0.253
- relative viability ([14]; first compound 1.265 µM): 0.174
- relative viability ([14]; first compound 4 µM): 0.214
- relative viability ([15]; first compound 0.04 µM): 0.412
- relative viability ([15]; first compound 0.1265 µM): 0.395
- relative viability ([15]; first compound 0.4 µM): 0.477
- relative viability ([15]; first compound 1.265 µM): 0.365
- relative viability ([15]; first compound 4 µM): 0.293
- relative viability ([16]; first compound 0.04 µM): 0.426
- relative viability ([16]; first compound 0.1265 µM): 0.326
- relative viability ([16]; first compound 0.4 µM): 0.337
- relative viability ([16]; first compound 1.265 µM): 0.365
- relative viability ([16]; first compound 4 µM): 0.294
- relative viability ([17]; first compound 0.04 µM): 0.371
- relative viability ([17]; first compound 0.1265 µM): 0.554
- relative viability ([17]; first compound 0.4 µM): 0.205
- relative viability ([17]; first compound 1.265 µM): 0.233
- relative viability ([17]; first compound 4 µM): 0.309
- relative viability ([18]; first compound 0.04 µM): 0.631
- relative viability ([18]; first compound 0.1265 µM): 0.498
- relative viability ([18]; first compound 0.4 µM): 0.445
- relative viability ([18]; first compound 1.265 µM): 0.243
- relative viability ([18]; first compound 4 µM): 0.122
- relative viability ([19]; first compound 0.04 µM): 0.579
- relative viability ([19]; first compound 0.1265 µM): 0.661
- relative viability ([19]; first compound 0.4 µM): 0.595
- relative viability ([19]; first compound 1.265 µM): 0.304
- relative viability ([19]; first compound 4 µM): 0.337
- relative viability ([20]; first compound 0.04 µM): 0.351
- relative viability ([20]; first compound 0.1265 µM): 0.299
- relative viability ([20]; first compound 0.4 µM): 0.298
- relative viability ([20]; first compound 1.265 µM): 0.179
- relative viability ([20]; first compound 4 µM): 0.202

Source: the supplement of paper PMC10307832
